Test results taken from ChEMBL document CHEMBL1201862, “PubChem BioAssay data set” (2004).
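These data come from cells grown in 96-well plates and exposed to compound for 48 hours at five concentrations. GI50 marks 50% less growth.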 Calls of active or inactive are those of the source. Cut-off read from the data, not from the text of the source: active = GI50 up to about 1.1 µM and inactive = higher.

Key:
Assay in all cases: NCI-60 cell line screen, 48 h
HCT-116 = test system: HCT-116
RXF 393 = test system: RXF 393
OVCAR-4 = test system: OVCAR-4
OVCAR-8 = test system: OVCAR-8
A498 = test system: A498
A549 = test system: A549
CAKI-1 = test system: CAKI-1
SF-295 = test system: SF-295
MDA-MB-231 = test system: MDA-MB-231
NCI-H23 = test system: NCI-H23
OVCAR-5 = test system: OVCAR-5
NCI-H460 = test system: NCI-H460
DU-145 = test system: DU-145
SR = test system: SR
PC-3 = test system: PC-3
SNB-75 = test system: SNB-75
SK-MEL-28 = test system: SK-MEL-28
HT-29 = test system: HT-29
COLO 205 = test system: COLO 205
SK-MEL-5 = test system: SK-MEL-5
OVCAR-3 = test system: OVCAR-3
BT-549 = test system: BT-549
KM12 = test system: KM12
HCC 2998 = test system: HCC 2998
HCT-15 = test system: HCT-15
NCI-H522 = test system: NCI-H522
SK-OV-3 = test system: SK-OV-3
786-0 = test system: 786-0
RPMI-8226 = test system: RPMI-8226
SNB-19 = test system: SNB-19
ACHN = test system: ACHN
SF-268 = test system: SF-268
UACC-257 = test system: UACC-257
HOP-92 = test system: HOP-92
CCRF-CEM = test system: CCRF-CEM
EKVX = test system: EKVX
MOLT-4 = test system: MOLT-4
SW-620 = test system: SW-620
K562 = test system: K562
HOP-62 = test system: HOP-62
NCI-H226 = test system: NCI-H226
M14 = test system: M14
NCI/ADR-RES = test system: NCI/ADR-RES
MCF7 = test system: MCF7
U-251 = test system: U-251
Hs-578T = test system: Hs-578T
UO-31 = test system: UO-31
HL-60 = test system: HL-60
SK-MEL-2 = test system: SK-MEL-2
LOX IMVI = test system: LOX IMVI
UACC-62 = test system: UACC-62
IGROV-1 = test system: IGROV-1
MDA-MB-435 = test system: MDA-MB-435
SF-539 = test system: SF-539
T47D = test system: T47D
TK-10 = test system: TK-10
Malme-3M = test system: Malme-3M
SN12C = test system: SN12C
MDA-N = test system: MDA-N

Measured: GI50

COc1nc(Cl)c(Cl)c(Cl)n1.COc1nc(Cl)nc(Cl)c1Cl
inactive: HCT-116 8.2 µM | RXF 393 10.7 µM | OVCAR-4 6.07 µM | OVCAR-8 2.89 µM | A498 8.61 µM | A549 18.1 µM | SF-295 7.16 µM | MDA-MB-231 17.2 µM | NCI-H23 6.71 µM | OVCAR-5 30.9 µM | NCI-H460 5.6 µM | DU-145 2.35 µM | PC-3 2.66 µM | SNB-75 10.3 µM | SK-MEL-28 14 µM | HT-29 6.9 µM | COLO 205 14.2 µM | SK-MEL-5 15.2 µM | OVCAR-3 3.95 µM | BT-549 9.93 µM | SK-OV-3 10.3 µM | 786-0 14.2 µM | SNB-19 4.97 µM | ACHN 7.59 µM | SF-268 6.18 µM | UACC-257 3.83 µM | HOP-92 2.31 µM | CCRF-CEM 2.7 µM | SW-620 3.62 µM | HOP-62 2.92 µM | NCI-H226 42.5 µM | M14 8.36 µM | NCI/ADR-RES 7.87 µM | MCF7 2.62 µM | U-251 3.78 µM | Hs-578T 3.91 µM | HL-60 5.47 µM | SK-MEL-2 7.62 µM | LOX IMVI 2.66 µM | UACC-62 8.93 µM | IGROV-1 4.53 µM | MDA-MB-435 2.97 µM | SF-539 9.35 µM | T47D 2.29 µM | TK-10 8.73 µM | Malme-3M 10.6 µM | SN12C 23.3 µM
active: CAKI-1 0.0254 µM | SR 0.09 µM | KM12 0.485 µM | HCC 2998 0.252 µM | NCI-H522 0.675 µM | RPMI-8226 0.938 µM | EKVX 0.381 µM | MOLT-4 0.603 µM | K562 0.859 µM | UO-31 0.893 µM
2.19 µM: HCT-15

N=C(N)N/N=C/c1c(-c2ccc(Cl)c([N+](=O)[O-])c2)nc2sccn12
inactive: HCT-116 1.37 µM | RXF 393 1.22 µM | OVCAR-4 1.79 µM | OVCAR-8 2.11 µM | A498 1.72 µM | A549 1.75 µM | CAKI-1 1.69 µM | SF-295 1.75 µM | MDA-MB-231 1.74 µM | NCI-H23 1.85 µM | OVCAR-5 1.71 µM | NCI-H460 1.79 µM | DU-145 1.78 µM | SR 2.05 µM | PC-3 1.65 µM | SNB-75 1.62 µM | SK-MEL-28 4.08 µM | HT-29 1.52 µM | COLO 205 1.31 µM | SK-MEL-5 1.73 µM | OVCAR-3 1.34 µM | BT-549 1.89 µM | HCC 2998 1.6 µM | NCI-H522 2.01 µM | SK-OV-3 1.78 µM | 786-0 1.73 µM | RPMI-8226 2.06 µM | SNB-19 1.31 µM | ACHN 1.71 µM | SF-268 1.92 µM | UACC-257 1.91 µM | HOP-92 1.87 µM | CCRF-CEM 1.41 µM | EKVX 1.85 µM | MOLT-4 1.71 µM | SW-620 1.53 µM | HOP-62 1.85 µM | NCI-H226 1.92 µM | M14 1.8 µM | NCI/ADR-RES > 100 µM | MCF7 1.37 µM | U-251 1.67 µM | Hs-578T 2.05 µM | UO-31 1.85 µM | HL-60 1.96 µM | SK-MEL-2 1.85 µM | LOX IMVI 2.22 µM | UACC-62 1.8 µM | IGROV-1 1.72 µM | SF-539 1.82 µM | TK-10 1.76 µM | Malme-3M 1.91 µM | SN12C 1.82 µM
active: KM12 0.861 µM | K562 0.845 µM | MDA-MB-435 0.6 µM | T47D 0.493 µM
2.21 µM: HCT-15

CC(C)(C)OC(=O)C(C#N)C(=O)c1ccc(C(=O)O)[nH]1 (stereo not given)
inactive: HCT-116 38.4 µM | OVCAR-4 19.5 µM | OVCAR-8 30.1 µM | A498 20.5 µM | A549 35.9 µM | CAKI-1 18.8 µM | SF-295 33.5 µM | MDA-MB-231 29.4 µM | NCI-H23 36.3 µM | OVCAR-5 48.4 µM | NCI-H460 29.7 µM | DU-145 48.2 µM | PC-3 33.7 µM | SNB-75 50.5 µM | SK-MEL-28 62.2 µM | HT-29 39.2 µM | COLO 205 40.2 µM | SK-MEL-5 31 µM | OVCAR-3 29.3 µM | BT-549 48.5 µM | KM12 34.8 µM | NCI-H522 33.5 µM | SK-OV-3 42 µM | 786-0 51.9 µM | RPMI-8226 22.8 µM | SNB-19 41.5 µM | ACHN 32.2 µM | SF-268 47.4 µM | UACC-257 30.2 µM | HOP-92 12 µM | CCRF-CEM 15 µM | EKVX 29.2 µM | MOLT-4 33.6 µM | SW-620 34.9 µM | K562 22.6 µM | NCI-H226 38 µM | M14 44.2 µM | NCI/ADR-RES 12.7 µM | U-251 30.6 µM | UO-31 30.8 µM | HL-60 21.7 µM | MDA-N 40.4 µM | SK-MEL-2 23.6 µM | LOX IMVI 27.7 µM | UACC-62 18.3 µM | MDA-MB-435 32.3 µM | SF-539 51.6 µM | T47D 34.6 µM | TK-10 29.7 µM | Malme-3M 35.2 µM | SN12C 43.1 µM
23.2 µM: HCT-15

COc1ccc2c(=O)c3ccoc3[nH]c2c1
inactive: HCT-116 > 100 µM | RXF 393 > 100 µM | OVCAR-4 > 100 µM | OVCAR-8 > 100 µM | A498 > 100 µM | CAKI-1 > 100 µM | SF-295 > 100 µM | MDA-MB-231 > 100 µM | NCI-H23 > 100 µM | NCI-H460 > 100 µM | DU-145 > 100 µM | SR > 100 µM | PC-3 > 100 µM | SNB-75 > 100 µM | SK-MEL-28 > 100 µM | HT-29 > 100 µM | COLO 205 > 100 µM | SK-MEL-5 > 100 µM | BT-549 > 100 µM | KM12 > 100 µM | HCC 2998 > 100 µM | SK-OV-3 > 100 µM | 786-0 > 100 µM | RPMI-8226 > 100 µM | SNB-19 > 100 µM | ACHN > 100 µM | SF-268 > 100 µM | UACC-257 > 100 µM | HOP-92 > 100 µM | CCRF-CEM > 100 µM | EKVX > 100 µM | MOLT-4 > 100 µM | SW-620 > 100 µM | K562 > 100 µM | HOP-62 > 100 µM | NCI-H226 > 100 µM | M14 > 100 µM | NCI/ADR-RES > 100 µM | MCF7 > 100 µM | U-251 > 100 µM | Hs-578T 80.9 µM | UO-31 > 100 µM | HL-60 > 100 µM | SK-MEL-2 > 100 µM | LOX IMVI > 100 µM | UACC-62 > 100 µM | IGROV-1 > 100 µM | MDA-MB-435 > 100 µM | SF-539 > 100 µM | T47D > 100 µM | TK-10 > 100 µM
> 100 µM: HCT-15
